Here are results for 10 compounds from article PMC6827013, “Alpha-Glucosidase and Alpha-Amylase Inhibitory Activities of Novel Abietane Diterpenes from Salvia africana-lutea” (Antioxidants, 2019).

Experiment [1] is described as follows: Trolox equivalent absorbance capacity (TEAC) assay. How it is done:
The total anti-oxidant activity of the test sample was measured using previously described methods. Absorbance was read at 734 nm at 25 °C in a plate reader, and the results were expressed as μmole Trolox equivalents per […] of dry weight (μM TE/g DW) of the test samples.
(§1) The in vitro antioxidant activity of the isolated compounds of the methanolic extract of S. africana-lutea were investigated by evaluating their ferric-ion reducing antioxidant power (FRAP), trolox equivalent absorbance capacity (TEAC), and oxygen radical absorbance capacity (ORAC) activities. […] Phenolic compounds have been reported to be responsible for the antioxidant activity of numerous plant species by stabilization of radicals by donating electrons or by metal ion complexation, among other mechanisms. Nevertheless, other aspects can be considered, for example, the presence of vicinal hydroxyl groups is essential in a pronounced antioxidant activity. Abietane diterpenes are known for having strong antioxidant activity due to the presence of ortho-dihydroxyl groups/vicinal hydroxyls in the aromatic ring that serve as hydrogen and/or electron donating agents to the corresponding reactive species leading to the formation of the stable quinone derivatives. It has been shown that the phenolic group at the 11 position would be more implicated in the antioxidant activity. In general, phenolic compounds are expected to transfer electrons or donate protons to the reactive radicals because of the resonance stability of the phenoxy radical.

Experiment [2] is described as follows: Oxygen radical absorbance capacity (ORAC) assay.
Excerpt: ORAC assay was done according to the previous method. ORAC values were expressed as micromoles of trolox equivalents (TE) per milligram of the test sample. Samples without a perfect curve were further diluted, and the dilution factors were used in the calculations of such samples.
as §1

A short description of experiment [3]: Ferric-ion reducing antioxidant power (FRAP) assay. The settings on record: ascorbic acid equivalents; mean ± SEM, n = 3. How it is done:
The FRAP assay was carried out in accordance with the method described previously. […] L-Ascorbic acid was used as a standard, and the results were expressed as µmole ascorbic acid equivalents per […] of dry weight (μM AAE/g DW) of the test samples.
The in vitro antioxidant activity of the isolated compounds of the methanolic extract of S. africana-lutea were investigated by evaluating their ferric-ion reducing antioxidant power (FRAP), trolox equivalent absorbance capacity (TEAC), and oxygen radical absorbance capacity (ORAC) activities. […] Nevertheless, other aspects can be considered, for example, the presence of vicinal hydroxyl groups is essential in a pronounced antioxidant activity. […] It has been shown that the phenolic group at the 11 position would be more implicated in the antioxidant activity. In general, phenolic compounds are expected to transfer electrons or donate protons to the reactive radicals because of the resonance stability of the phenoxy radical.

The target of experiment [4] is α-glucosidase (Saccharomyces cerevisiae). Put plainly: Alpha-glucosidase inhibitory activity (p-NPG substrate, absorbance 405 nm). The settings on record: mean ± SEM, n = 3; NA = not active at the test concentrations. Format: biochemical. As for the experimental part:
Alpha-glucosidase inhibitory activity of the isolated compounds was carried out according to the standard method, with a slight modification. […] Next, 20 μL of p-NPG (5 mM) was added as a substrate and incubated further at 37 °C for 20 min. The reaction was stopped by adding 50 μL of sodium carbonate Na2CO3 (0.1 M). […] Each experiment was performed in triplicates. […] Inhibitory activity (%) = (1 − A/B) ×100(1) where A is the absorbance in the presence of the test substance and B is the absorbance of the control.

In experiment [5] the target is T1, α-amylase (procaine pancreas) (Sus scrofa, UniProt P00690).
T1 construct: α-amylase (procaine pancreas); purchased Sigma-Aldrich, Cape town, South Africa; host or cells: pancreas
T1 sequence (P00690 16-511): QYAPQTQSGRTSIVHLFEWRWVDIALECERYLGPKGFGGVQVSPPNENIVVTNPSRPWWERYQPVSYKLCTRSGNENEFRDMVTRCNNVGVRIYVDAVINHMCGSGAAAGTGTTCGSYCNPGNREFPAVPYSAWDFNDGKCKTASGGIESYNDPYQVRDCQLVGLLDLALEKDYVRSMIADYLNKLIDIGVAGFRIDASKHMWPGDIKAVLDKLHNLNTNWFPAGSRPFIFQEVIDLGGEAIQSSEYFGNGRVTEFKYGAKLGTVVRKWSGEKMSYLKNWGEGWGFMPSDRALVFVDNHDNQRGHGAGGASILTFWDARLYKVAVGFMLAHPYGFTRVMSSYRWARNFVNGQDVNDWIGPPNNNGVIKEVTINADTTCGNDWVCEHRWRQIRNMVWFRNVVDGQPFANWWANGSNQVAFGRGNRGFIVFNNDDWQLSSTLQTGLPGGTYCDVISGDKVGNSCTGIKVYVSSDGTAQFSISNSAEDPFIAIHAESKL
Description: Alpha-amylase inhibitory activity (starch substrate, DNS, absorbance 540 nm). Format: biochemical. The settings on record: mean ± SEM, n = 3; NA = not active at the test concentrations.
Description: The alpha-amylase inhibitory activity of the extract and fractions was carried out according to the standard method, with a slight modification [24]. In a 96-well plate, the reaction mixture containing 50 μL of phosphate buffer (100 mM, pH = 6.8), 10 μL alpha amylase (2 U/mL), and 20 μL of varying concentrations of isolated compounds was pre-incubated at 37 °C for 20 min. Next, 20 μL of 1% soluble starch (100 mM phosphate buffer pH 6.8) was added as a substrate and incubated further at 37 °C for 30 min. A volume of 100 μL of the color reagent (DNS) was added and then boiled for 10 min. The absorbance of the resulting mixture was measured at 540 nm using a Multiplate Reader (Multiskan thermo scientific, version 1.00.40). […] Each experiment was performed in triplicates. The results were expressed as the percentage inhibition, which was calculated using Formula (2). Inhibitory activity (%) = (1 − A/B) ×100(2) where A is the absorbance in the presence of the test substance and B is the absorbance of the control.

Where [6] appears, read: Trolox equivalents, mean ± SEM, n = 3, NA = not active at the test concentrations.

Molecules are shown by their SMILES. Read-outs that look alike come from different tables or passages of the source.

Take `COc1c(C(C)C)cc2c(c1O)[C@@]1(C(=O)O)CCC[C@](C)(COC(C)=O)C1CC2` (stereo partly shown) [Compound 1, 19-acetoxy-12-methoxycarnosic acid]: the TEAC in experiment [1] (setting [6]) came to 694.0 ±1.6 µmole TE/g. The ORAC in experiment [2] was 2588.2 ± 10.1 µM TE/g; in experiment [2] (setting [6]), 2588.2 ± 10.1 µmole TE/g. The FRAP in experiment [3] amounted to 1217.4 ± 2.9 µM AAE/g.
As to `COC1c2cc(C(C)C)c(O)c(O)c2C23CCC(OC(C)=O)C(C)(C)C2C1OC3=O` (stereo not drawn) [Compound 2, 3β-acetoxy-7α-methoxyrosmanol], the TEAC in experiment [1] (setting [6]) is given as 635.7 ± 0.8 µmole TE/g. Also, the ORAC in experiment [2] (setting [6]) is recorded as 2233.9 ± 8.0 µmole TE/g. The FRAP in experiment [3] is 2200.9 ± 14.2 µM AAE/g.
For `COC1c2cc(C(C)C)c(O)c(O)c2C23CCCC(C)(COC(C)=O)C2C1OC3=O` (stereo not drawn) [Compound 3, 19-acetoxy-7α-methoxyrosmanol] the same measures were 124.4 ± 0.6 µmole TE/g, 735.4 ± 2.0 µmole TE/g and 1440.4 ± 9.1 µM AAE/g.
The like results for `COc1c(C(C)C)cc2c(c1O)C13CCCC(C)(COC(C)=O)C1CC2OC3=O` (stereo not shown) [Compound 4, 19-acetoxy-12-methoxy carnosol] were, in that order, 440.1 ± 1.5 µmole TE/g, 559.7 ± 15.2 µmole TE/g and 1257.0 ± 6.7 µM AAE/g.
For the compound `CC(C)c1cc2c(c(O)c1O)[C@]13CCC[C@](C)(C(O)OC1=O)C3CC2` (stereo partly shown) [Compound 5, clinopodiolide A], the TEAC was 862.2 ± 1.4 µM TE/g in experiment [1] and 862.2 ± 1.4 µmole TE/g in experiment [1] (setting [6]). Besides, the ORAC in experiment [2] (setting [6]) is recorded as 2357.2 ± 0.1 µmole TE/g. Further, in experiment [3], the FRAP worked out at 2262.9 ± 11.0 µM AAE/g.
As to `COc1c(C(C)C)cc2c(c1O)[C@]13CCC[C@](C)(C(O)OC1=O)C3CC2` (stereo partly shown) [Compound 6, clinopodiolide B], the “Alpha-Glucosidase IC50” value in experiment [4] is 81.7 ± 2.1 µg/mL. In addition, the TEAC in experiment [1] came out at 705.5 ± 2.0 µM TE/g; in experiment [1] (setting [6]), 724.9 ± 1.3 µmole TE/g. Moreover, the ORAC in experiment [2] (setting [6]) came to 1502.5 ± 21.2 µmole TE/g. For the same compound, the FRAP in experiment [3] is reported as 1480.0 ± 3.9 µM AAE/g.
As to `CC1(C)CC[C@]2(C(=O)O)CC[C@]3(C)C(=CC[C@@H]4[C@@]5(C)CC[C@H](O)C(C)(C)[C@@H]5CC[C@]43C)[C@@H]2C1` [Compound 7, oleanolic acid], the FRAP in experiment [3] was 347.8 ± 3.7 µM AAE/g.
Regarding `CC1CCC23CCC4(C)C5(C)CCC6C(C)(C)C(O)CCC6(C)C5C=CC4(OC2=O)C3C1C` (stereo not shown) [Compound 9, 11,12-dehydroursolic acid lactone], the “Alpha-Glucosidase IC50” value in experiment [4] was found to be 85.8 ± 2.3 µg/mL. Also, the FRAP in experiment [3] is given as 283.4 ± 3.9 µM AAE/g.
Take `CC1(C)CC[C@]2(C)CC[C@]3(C)C(=CC[C@@H]4[C@@]5(C)CC[C@H](O)C(C)(C)[C@@H]5CC[C@]43C)[C@@H]2C1` [Compound 10, β-amyrin]: the “Alpha-Glucosidase IC50” value in experiment [4] worked out at 17.1 ± 1.0 µg/mL. Further, in experiment [5], the IC50 (commonly the concentration needed to halve the response being measured) was 180 µM. In addition, the FRAP in experiment [3] was 412.2 ± 13.0 µM AAE/g.
For the compound `O=C(O[C@@H]1Cc2c(O)cc(O)cc2O[C@@H]1c1cc(O)c(O)c(O)c1)c1cc(O)c(O)c(O)c1` [EGCG, Epigallocatechingallate, reference compound], in experiment [1] (setting [6]), the TEAC worked out at 4146.4 ± 19.8 µmole TE/g. For the same compound, the ORAC in experiment [2] (setting [6]) was 3976.8 ± 3.8 µmole TE/g. For the same compound, the FRAP in experiment [3] was found to be 7525.0 ± 4.9 µM AAE/g.
